8 molecules from ChEMBL document CHEMBL1142811, “Design and syntheses of melanocortin subtype-4 receptor agonists. Part 2: discovery of the dihydropyridazinone motif” (Bioorg Med Chem Lett, 2005) can be followed below.

Sequence of Melanocortin receptor 5 (P33032 whole entry): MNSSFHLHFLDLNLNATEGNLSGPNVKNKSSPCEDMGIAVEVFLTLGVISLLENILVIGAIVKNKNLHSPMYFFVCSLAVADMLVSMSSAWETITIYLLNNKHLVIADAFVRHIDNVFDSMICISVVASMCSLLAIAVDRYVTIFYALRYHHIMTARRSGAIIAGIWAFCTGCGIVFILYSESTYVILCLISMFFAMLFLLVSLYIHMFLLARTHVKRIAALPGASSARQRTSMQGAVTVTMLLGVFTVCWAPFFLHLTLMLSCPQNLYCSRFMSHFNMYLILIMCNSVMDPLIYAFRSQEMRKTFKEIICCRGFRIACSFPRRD

In the first test the target is T1, Melanocortin receptor 4 (Homo sapiens, UniProt P32245). As to the kind of experiment: Effective concentration at human melanocortin 4 receptor in cAMP release assay. The format is functional.
T1 sequence (P32245 whole entry): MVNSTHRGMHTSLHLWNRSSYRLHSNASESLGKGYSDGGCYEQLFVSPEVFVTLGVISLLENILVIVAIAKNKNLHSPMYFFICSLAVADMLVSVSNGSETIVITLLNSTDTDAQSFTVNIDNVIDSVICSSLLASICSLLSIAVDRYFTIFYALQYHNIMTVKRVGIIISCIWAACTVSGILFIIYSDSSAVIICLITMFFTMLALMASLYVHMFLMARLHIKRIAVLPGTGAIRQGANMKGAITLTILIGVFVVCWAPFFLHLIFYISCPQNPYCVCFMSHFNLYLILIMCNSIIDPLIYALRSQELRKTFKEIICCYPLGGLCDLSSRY
`COc1ccc(-n2nc(Sc3ccc(Cl)cc3)cc(CC[C@@H](C)NC(=O)[C@H]3CNCC[C@@H]3c3ccsc3)c2=O)cc1` returned a concentration for a half-maximal effect (EC50) of 490 nM.
On the same count and under the same terms, with `COc1ccc(-n2nc(Sc3ccc(Cl)cc3)cc(CC[C@@H](C)NC(=O)[C@H]3CNCC[C@@H]3c3ccc(C)cc3)c2=O)cc1` the figure was 1100 nM; with `COc1ccc(-n2nc(Sc3ccc(Cl)cc3)cc(CC[C@@H](C)NC(=O)[C@H]3CCNC[C@@H]3Cc3ccc(F)cc3)c2=O)cc1`, 630 nM.
The same measure, in the same setting: with `COc1ccc(-n2nc(Sc3ccc(Cl)cc3)cc(CC[C@@H](C)NC(=O)[C@H]3CNCC[C@@H]3c3ccc(C(F)(F)F)cc3)c2=O)cc1` the figure was greater than 5000 nM.

For a further test, the target named is Melanocortin receptor 3 (Homo sapiens, UniProt P41968). Kind of test: Maximum percentage of cAMP accumulation compared to alpha-MSH at human melanocortin 3 receptor. The format is functional.
Sequence of Melanocortin receptor 3 (P41968 whole entry): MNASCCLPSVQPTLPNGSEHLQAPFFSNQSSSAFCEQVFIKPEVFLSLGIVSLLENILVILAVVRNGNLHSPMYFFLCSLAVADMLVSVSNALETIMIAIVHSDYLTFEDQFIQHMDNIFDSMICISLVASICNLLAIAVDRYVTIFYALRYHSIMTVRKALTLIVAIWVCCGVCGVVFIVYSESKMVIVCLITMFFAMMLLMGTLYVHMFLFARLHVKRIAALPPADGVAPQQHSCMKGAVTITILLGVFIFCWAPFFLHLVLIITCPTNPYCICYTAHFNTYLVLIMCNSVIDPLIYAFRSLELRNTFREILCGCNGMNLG
Molecule `COc1ccc(N2N=C(Sc3ccc(Cl)cc3)CC(CC[C@@H](C)NC(=O)[C@H]3CCNC[C@@H]3c3ccc(F)cc3)C2=O)cc1` (stereo in doubt; 63) showed a Max of 21%.

A further test has as its target T1, Melanocortin receptor 4. As to the kind of experiment: Maximum percentage of cAMP accumulation compared to alpha-MSH at human melanocortin 4 receptor at 10 uM. Type of test: functional.
The molecule `COc1ccc(-n2nc(Sc3ccc(Cl)cc3)cc(CC[C@@H](C)NC(=O)[C@H]3CNCC[C@@H]3c3ccsc3)c2=O)cc1` displayed a Max of 82%.
In turn, `COc1ccc(-n2nc(Sc3ccc(Cl)cc3)cc(CC[C@@H](C)NC(=O)[C@H]3CNCC[C@@H]3c3ccc(C)cc3)c2=O)cc1` showed a Max of 47%.
On the same count and under the same terms, then `COc1ccc(-n2nc(Sc3ccc(Cl)cc3)cc(CC[C@@H](C)NC(=O)[C@H]3CCNC[C@@H]3Cc3ccc(F)cc3)c2=O)cc1`, with 62%; and `COc1ccc(-n2nc(Sc3ccc(Cl)cc3)cc(CC[C@@H](C)NC(=O)[C@H]3CNCC[C@@H]3c3cccc(F)c3)c2=O)cc1`, with 29%; and `COc1ccc(-n2nc(Sc3ccc(Cl)cc3)cc(CC[C@@H](C)NC(=O)[C@H]3CNCC[C@@H]3c3ccc(C(F)(F)F)cc3)c2=O)cc1`, with 24%.
Consider `COc1ccc(-n2nc(Sc3ccc(Cl)cc3)cc(CC[C@@H](C)NC(=O)[C@H]3CNCC[C@@H]3c3ccc(Cl)cc3Cl)c2=O)cc1`, for which the Max was found to be 2%.
Still for that read-out and setting: with `COc1ccc(-n2nc(Sc3ccc(Cl)cc3)cc(CC[C@@H](C)NC(=O)[C@H]3CNCC[C@@H]3c3cccc(C(F)(F)F)c3)c2=O)cc1` the figure was 40%.

A further test has as its target T1, Melanocortin receptor 4. As to the kind of experiment: Inhibition of [125I]-NDP- alpha-MSH binding to human melanocortin 4 receptor expressed in CHO cells. Type of test: cell-based.
`COc1ccc(-n2nc(Sc3ccc(Cl)cc3)cc(CC[C@@H](C)NC(=O)[C@H]3CNCC[C@@H]3c3ccsc3)c2=O)cc1` had a 50% inhibitory concentration (IC50) of 130 nM.
The molecule `COc1ccc(-n2nc(Sc3ccc(Cl)cc3)cc(CC[C@@H](C)NC(=O)[C@H]3CNCC[C@@H]3c3ccc(C)cc3)c2=O)cc1` gave a half-inhibitory concentration (IC50) of 4.7 nM.
Still for that read-out and setting: then `COc1ccc(-n2nc(Sc3ccc(Cl)cc3)cc(CC[C@@H](C)NC(=O)[C@H]3CCNC[C@@H]3Cc3ccc(F)cc3)c2=O)cc1`, with 390 nM; and `COc1ccc(-n2nc(Sc3ccc(Cl)cc3)cc(CC[C@@H](C)NC(=O)[C@H]3CNCC[C@@H]3c3cccc(F)c3)c2=O)cc1`, with 490 nM.
On the same count and under the same terms, then `COc1ccc(-n2nc(Sc3ccc(Cl)cc3)cc(CC[C@@H](C)NC(=O)[C@H]3CNCC[C@@H]3c3ccc(C(F)(F)F)cc3)c2=O)cc1`, with 3.8 nM; and `COc1ccc(-n2nc(Sc3ccc(Cl)cc3)cc(CC[C@@H](C)NC(=O)[C@H]3CNCC[C@@H]3c3ccc(Cl)cc3Cl)c2=O)cc1`, with 3.2 nM.
Molecule `COc1ccc(-n2nc(Sc3ccc(Cl)cc3)cc(CC[C@@H](C)NC(=O)[C@H]3CNCC[C@@H]3c3cccc(C(F)(F)F)c3)c2=O)cc1` displayed an IC50 of 100 nM.

The next test concerns the target Melanocortin receptor 5 (Homo sapiens, UniProt P33032). Kind of test: Maximum percentage of cAMP accumulation compared to alpha-MSH at human melanocortin 5 receptor at 10 uM. The format is functional.
In turn, `COc1ccc(N2N=C(Sc3ccc(Cl)cc3)CC(CC[C@@H](C)NC(=O)[C@H]3CCNC[C@@H]3c3ccc(F)cc3)C2=O)cc1` (stereo in doubt; 63) showed a Max of 7%.

The target in a further test is T1, Melanocortin receptor 4. As to the kind of experiment: Maximum percentage of cAMP accumulation relative to alpha-MSH at human melanocortin 4 receptor at 10 uM. Type of test: functional.
In turn, `COc1ccc(N2N=C(Sc3ccc(Cl)cc3)CC(CC[C@@H](C)NC(=O)[C@H]3CCNC[C@@H]3c3ccc(F)cc3)C2=O)cc1` (stereo in doubt; 63) yielded a Max of 98%.
